This note sets out measurements from patent publication US12703704B2, “Process for preparing a composition comprising enantiomerically enriched pyrrolo[2,3-d]pyrimidines” (Sun Pharmaceutical Industries, Inc., priority 2020, dated 2026).

SMILES strings stand for the structures. pIC50: −log10 of the molar value. Bounds are passed on as bounds.

The target of one experiment is JAK1 (Homo sapiens, UniProt P23458). Description: JAK1 inhibition (IC50). The format is biochemical. To be noted: Compound A or a pharmaceutically acceptable salt thereof.
The target in another experiment is JAK2 (Homo sapiens, UniProt O60674). Description: JAK2 inhibition (IC50). The format is biochemical. To be noted: Compound A or a pharmaceutically acceptable salt thereof.
Sequence of JAK2 (O60674 whole entry): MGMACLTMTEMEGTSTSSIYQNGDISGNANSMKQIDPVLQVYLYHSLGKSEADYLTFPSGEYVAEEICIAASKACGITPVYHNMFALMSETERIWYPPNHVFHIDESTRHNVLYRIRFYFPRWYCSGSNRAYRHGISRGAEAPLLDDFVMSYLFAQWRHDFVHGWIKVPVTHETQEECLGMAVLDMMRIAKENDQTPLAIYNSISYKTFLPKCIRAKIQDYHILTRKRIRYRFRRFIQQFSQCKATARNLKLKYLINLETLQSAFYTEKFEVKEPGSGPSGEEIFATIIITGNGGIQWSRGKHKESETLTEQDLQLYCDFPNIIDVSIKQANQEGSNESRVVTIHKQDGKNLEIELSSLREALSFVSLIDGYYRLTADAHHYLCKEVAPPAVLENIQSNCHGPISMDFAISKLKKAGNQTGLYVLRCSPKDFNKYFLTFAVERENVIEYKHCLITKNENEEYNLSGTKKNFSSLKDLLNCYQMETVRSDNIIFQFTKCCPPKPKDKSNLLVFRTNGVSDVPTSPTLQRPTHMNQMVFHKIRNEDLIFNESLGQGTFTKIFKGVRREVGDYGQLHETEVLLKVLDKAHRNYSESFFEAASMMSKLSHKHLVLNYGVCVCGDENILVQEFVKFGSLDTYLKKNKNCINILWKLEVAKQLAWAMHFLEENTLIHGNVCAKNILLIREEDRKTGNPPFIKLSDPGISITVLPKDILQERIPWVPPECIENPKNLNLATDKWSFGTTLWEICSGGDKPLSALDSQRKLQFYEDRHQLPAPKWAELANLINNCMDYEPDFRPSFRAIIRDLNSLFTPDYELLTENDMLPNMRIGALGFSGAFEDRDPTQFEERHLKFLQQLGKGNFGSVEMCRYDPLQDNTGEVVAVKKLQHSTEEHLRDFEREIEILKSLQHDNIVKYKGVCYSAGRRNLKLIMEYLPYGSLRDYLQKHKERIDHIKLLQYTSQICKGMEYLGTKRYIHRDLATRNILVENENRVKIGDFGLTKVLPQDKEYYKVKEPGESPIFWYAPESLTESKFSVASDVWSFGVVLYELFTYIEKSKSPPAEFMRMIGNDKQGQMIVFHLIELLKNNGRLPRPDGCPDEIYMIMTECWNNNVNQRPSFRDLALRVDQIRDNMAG

Sequence of JAK1 (P23458 whole entry): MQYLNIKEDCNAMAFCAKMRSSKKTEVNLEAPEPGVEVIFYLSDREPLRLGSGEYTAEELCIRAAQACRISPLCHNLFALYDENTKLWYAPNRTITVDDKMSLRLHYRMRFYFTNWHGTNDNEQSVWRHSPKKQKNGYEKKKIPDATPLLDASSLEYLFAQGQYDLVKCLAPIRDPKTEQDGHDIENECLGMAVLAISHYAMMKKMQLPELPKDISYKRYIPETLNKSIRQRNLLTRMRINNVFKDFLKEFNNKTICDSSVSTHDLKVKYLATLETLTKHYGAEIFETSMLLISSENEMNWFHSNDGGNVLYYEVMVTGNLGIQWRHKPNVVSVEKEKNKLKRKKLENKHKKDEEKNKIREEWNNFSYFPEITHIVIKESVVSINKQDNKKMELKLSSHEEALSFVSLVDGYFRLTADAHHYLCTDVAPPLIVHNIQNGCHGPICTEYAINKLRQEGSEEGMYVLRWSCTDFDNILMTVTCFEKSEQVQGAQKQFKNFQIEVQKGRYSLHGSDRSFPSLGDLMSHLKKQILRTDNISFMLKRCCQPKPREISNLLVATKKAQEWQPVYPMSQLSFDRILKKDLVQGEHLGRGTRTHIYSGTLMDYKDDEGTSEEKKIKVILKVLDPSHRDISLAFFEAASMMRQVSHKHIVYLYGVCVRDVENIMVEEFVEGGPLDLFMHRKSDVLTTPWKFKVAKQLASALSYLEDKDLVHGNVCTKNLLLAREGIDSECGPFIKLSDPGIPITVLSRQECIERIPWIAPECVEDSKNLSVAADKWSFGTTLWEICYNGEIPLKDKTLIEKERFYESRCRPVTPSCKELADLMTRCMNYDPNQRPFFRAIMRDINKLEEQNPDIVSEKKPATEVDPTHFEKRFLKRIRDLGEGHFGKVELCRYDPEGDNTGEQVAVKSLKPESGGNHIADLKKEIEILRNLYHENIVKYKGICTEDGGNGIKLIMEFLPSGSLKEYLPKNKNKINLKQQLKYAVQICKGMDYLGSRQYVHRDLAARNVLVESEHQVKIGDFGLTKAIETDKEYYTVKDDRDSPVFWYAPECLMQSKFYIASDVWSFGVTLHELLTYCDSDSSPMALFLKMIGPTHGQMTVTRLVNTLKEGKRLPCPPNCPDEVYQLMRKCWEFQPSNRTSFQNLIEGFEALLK

For the compound `[2H]C1([2H])C([C@@H](CC(N)=O)n2cc(-c3ncnc4[nH]ccc34)cn2)C([2H])([2H])C([2H])([2H])C1([2H])[2H]` [Compound A, (R)-3-(4-(7H-pyrrolo[2,3-d]pyrimidin-4-yl)-1H-pyrazol-1-yl)-3-(cyclopentyl-2,2,3,3,4,4,5,5-d8) propanamide], the negative-log IC50 (pIC50) at JAK1 and at JAK2 was over 7.00 in each case.

A word on the pIC50: it is −log10 of the IC50, conventionally taken in molar units.
